The values that follow come from ChEMBL document CHEMBL1201862, “PubChem BioAssay data set” (2004).

Test systems include 786-0; CCRF-CEM; DU-145; EKVX; HCC 2998; HOP-62; K562; KM12; LOX IMVI; MDA-N; MOLT-4; SF-268; SF-295; SK-MEL-2; SK-OV-3; SNB-19; SR; T47D.
Assay in all cases: NCI tumour cell line growth inhibition, 48 h

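Exposure lasted 48 hours, with cells grown in 96-well plates and compounds tested at five concentrations. GI50 = concentration required for 50% inhibition of growth.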 Calls of active or inactive are those of the source. Cut-off read from the data, not from the text of the source: active = GI50 up to about 1.1 µM and inactive = higher.

As to `C=C1C2CC3CCC2C(OC(=O)c2ccccc2C(=O)O)C13` (centres undefined), the GI50 in the assay with 786-0, in the assay with CCRF-CEM, in the assay on DU-145, with EKVX, in the assay on HCC 2998 and with HOP-62 was > 100 µM (inactive) in each case. For the same compound, the GI50 in the assay with K562, in the assay with KM12, with LOX IMVI, in the assay with MDA-N, with MOLT-4 and with SF-268 was > 100 µM (inactive) in each case. Further, the GI50 in the assay on SF-295, in the assay on SK-MEL-2, with SK-OV-3, with SNB-19, with SR and in the assay with T47D was > 100 µM (inactive) throughout.

With `CCC[C@H](C)[C@H]1NC(=O)[C@@H](NC(=O)[C@@H](CC(C)C)N(C)C(=O)C2CCCN2C(=O)[C@H](C)O)[C@@H](C)OC(=O)[C@H](CC(C)C)N(C)C(=O)[C@@H]2CCCN2C(=O)[C@H](CC(C)C)NC(=O)[C@@H](C)C(=O)[C@H](C(C)C)OC(=O)C[C@@H]1O` (some centres undefined), the GI50 with 786-0, with CCRF-CEM, with DU-145, in the assay with EKVX, in the assay with HCC 2998 and with HOP-62 was < 0.0025 µM (active) in each case. For the same compound, the GI50 with K562, with KM12, with LOX IMVI, in the assay with MDA-N, with MOLT-4 and with SF-268 was < 0.0025 µM (active) each time. Also, the GI50 in the assay on SF-295, in the assay on SK-MEL-2, in the assay on SK-OV-3, with SNB-19, in the assay on SR and with T47D was < 0.0025 µM (active) in each case.

On to `CC1=NN(c2cccc(Cl)c2)C2(SCC(=O)N2c2nc3ccccc3s2)/C1=C\c1ccc(Cl)cc1` (centres undefined), for which the GI50 in the assay on 786-0 was 21.6 µM (inactive); in the assay on CCRF-CEM, 0.272 µM (active); in the assay on DU-145, 18.4 µM (inactive); in the assay on EKVX, 33.5 µM (inactive); in the assay with HCC 2998, 14.5 µM (inactive); in the assay with HOP-62, 18 µM (inactive). The GI50 with K562 was 14.4 µM (inactive); in the assay on KM12, 15.4 µM (inactive); in the assay on LOX IMVI, 20.8 µM (inactive); with MDA-N it was 25.7 µM (inactive); in the assay with MOLT-4, 4.34 µM (inactive); in the assay on SF-268, 17.9 µM (inactive). For the same compound, the GI50 was 17 µM (inactive) in the assay on SF-295; 16.7 µM (inactive) in the assay on SK-MEL-2; 21.5 µM (inactive) in the assay with SK-OV-3; 2.81 µM (inactive) with SR; 24.8 µM (inactive) in the assay with T47D.

On to `C[C@@H](NC(=O)[C@@H]1C[C@]1(C)COC(=O)c1cc([N+](=O)[O-])cc([N+](=O)[O-])c1)c1cccc2ccccc12`, for which the GI50 in the assay with 786-0 is > 100 µM (inactive); in the assay with CCRF-CEM it was > 100 µM (inactive); with DU-145 it was > 100 µM (inactive); in the assay on EKVX, > 100 µM (inactive); with HCC 2998, > 100 µM (inactive); with HOP-62 it was 53 µM (inactive). Also, the GI50 with K562 is > 100 µM (inactive); in the assay with KM12, > 100 µM (inactive); in the assay with LOX IMVI, 60.1 µM (inactive); in the assay with MDA-N, > 100 µM (inactive); in the assay on MOLT-4 it was > 100 µM (inactive); in the assay with SF-268, > 100 µM (inactive). In addition, the GI50 with SF-295 was 93.5 µM (inactive); with SK-MEL-2, > 100 µM (inactive); in the assay with SK-OV-3, > 100 µM (inactive); with SNB-19, > 100 µM (inactive); in the assay with SR it was > 100 µM (inactive); in the assay on T47D it was 65.3 µM (inactive).

For `C=CC1=C(C)c2cc3[nH]c(c4c5nc(cc6[nH]c(cc1n2)c(C)c6CC)C(C)=C5C(=O)[C@@H]4C(=O)OC)[C@@H](CCC(=O)O)[C@@H]3C`, the GI50 with 786-0 is 7.71 µM (inactive); with CCRF-CEM, 1.21 µM (inactive); in the assay on DU-145 it was 33.8 µM (inactive); in the assay on EKVX it was 10.2 µM (inactive); in the assay with HCC 2998 it was 2 µM (inactive); with HOP-62, 8.95 µM (inactive). For the same compound, the GI50 is 1.38 µM (inactive) in the assay with K562; 4.83 µM (inactive) with KM12; 6.22 µM (inactive) in the assay with LOX IMVI; 5.27 µM (inactive) in the assay with MDA-N; 1 µM (active) with MOLT-4; 9.82 µM (inactive) in the assay with SF-268. Moreover, the GI50 was 2.12 µM (inactive) in the assay on SF-295; 4.13 µM (inactive) in the assay on SK-MEL-2; 4.06 µM (inactive) in the assay on SK-OV-3; 4.09 µM (inactive) in the assay with SNB-19; 0.634 µM (active) in the assay with SR; 5.81 µM (inactive) with T47D.

On to `Brc1cccc(/C=C/CN2CCN(CCOC(c3ccccc3)c3ccccc3)CC2)c1`, for which the GI50 in the assay on 786-0 was 15.7 µM (inactive); in the assay with CCRF-CEM it was 11.1 µM (inactive); with DU-145, 13.6 µM (inactive); with EKVX it was 17.5 µM (inactive); in the assay on HCC 2998 it was 8.53 µM (inactive); in the assay with HOP-62 it was 15.9 µM (inactive). Further, the GI50 is 7.69 µM (inactive) in the assay with K562; 14.8 µM (inactive) with KM12; 14.5 µM (inactive) with LOX IMVI; 16.7 µM (inactive) with MDA-N; 8.47 µM (inactive) with MOLT-4; 16.4 µM (inactive) in the assay with SF-268. The GI50 is 17.6 µM (inactive) in the assay on SF-295; 17.8 µM (inactive) in the assay on SK-MEL-2; 17.6 µM (inactive) with SK-OV-3; 16.7 µM (inactive) in the assay on SNB-19; 9.02 µM (inactive) in the assay with SR; 3.73 µM (inactive) in the assay on T47D.

In the case of `CC(=O)O[C@H]1C(=O)[C@@]2(C)[C@H]([C@H](OC(=O)c3ccccc3)[C@]3(O)C[C@H](OC(=O)[C@H](O)[C@@H](NC(=O)c4ccccc4)c4cccc(N(C)C)c4)C(C)=C1C3(C)C)[C@]1(OC(C)=O)CO[C@@H]1C[C@@H]2O`, the GI50 in the assay on 786-0 is 0.389 µM (active); in the assay on CCRF-CEM, 0.0215 µM (active); with DU-145 it was 0.302 µM (active); with EKVX, > 32.1 µM (inactive); with HCC 2998, 0.0315 µM (active); in the assay on HOP-62 it was 0.256 µM (active). Moreover, the GI50 in the assay on K562 is 0.0324 µM (active); in the assay on KM12 it was 0.0198 µM (active); in the assay with LOX IMVI, 0.036 µM (active); in the assay with MDA-N, 0.00766 µM (active); in the assay on MOLT-4, 0.013 µM (active); in the assay on SF-268, 0.337 µM (active). Further, the GI50 was 0.142 µM (active) in the assay on SF-295; 0.0301 µM (active) in the assay with SK-MEL-2; 0.105 µM (active) in the assay with SK-OV-3; 0.148 µM (active) in the assay with SNB-19; 0.0322 µM (active) in the assay on SR; 0.401 µM (active) with T47D.

As to `O=c1[nH]nc(Cc2ccccc2)n1/N=C/c1c[nH]c2ccccc12`, the GI50 with 786-0 was 43 µM (inactive); in the assay with CCRF-CEM, > 100 µM (inactive); in the assay with DU-145, > 100 µM (inactive); with EKVX, 95.1 µM (inactive); in the assay on HCC 2998, > 100 µM (inactive); in the assay with HOP-62, 60.7 µM (inactive). In addition, the GI50 was > 100 µM (inactive) in the assay with K562; > 100 µM (inactive) with KM12; > 100 µM (inactive) with LOX IMVI; 29.8 µM (inactive) in the assay on MDA-N; > 100 µM (inactive) with MOLT-4; 21.9 µM (inactive) with SF-268. For the same compound, the GI50 with SF-295 is 27.7 µM (inactive); with SK-MEL-2, > 100 µM (inactive); in the assay with SK-OV-3, 96.2 µM (inactive); in the assay on SNB-19 it was 49.5 µM (inactive); in the assay with SR, > 100 µM (inactive); in the assay on T47D, > 100 µM (inactive).

`COc1ccc(OC)c(-c2cc(=O)c3c(OC)c(OC)c(OC)c(OC)c3o2)c1`: the GI50 was 27.4 µM (inactive) in the assay on 786-0; 13.4 µM (inactive) in the assay with CCRF-CEM; 25.8 µM (inactive) with DU-145; 33 µM (inactive) in the assay with EKVX; 28.6 µM (inactive) in the assay with HCC 2998; 27.6 µM (inactive) in the assay on HOP-62. The GI50 in the assay on K562 was 22.2 µM (inactive); with LOX IMVI, 25.6 µM (inactive); with MDA-N it was 35.9 µM (inactive); in the assay with MOLT-4 it was 9.44 µM (inactive); in the assay on SF-268 it was 36 µM (inactive); with SF-295, 18.7 µM (inactive). Further, the GI50 was 20 µM (inactive) in the assay with SK-MEL-2; 22.8 µM (inactive) in the assay with SK-OV-3; 34.4 µM (inactive) with SNB-19; 6.17 µM (inactive) with SR; 2.13 µM (inactive) in the assay with T47D.

On to `CC#CC#C/C=C1/C=CC2(CCCCO2)O1` (centres undefined), for which the GI50 is > 100 µM (inactive) with 786-0; 21.2 µM (inactive) in the assay on CCRF-CEM; > 100 µM (inactive) in the assay on DU-145; > 100 µM (inactive) in the assay with EKVX; > 100 µM (inactive) with HCC 2998; 40.2 µM (inactive) with K562. Moreover, the GI50 is > 100 µM (inactive) in the assay on KM12; 90.2 µM (inactive) with LOX IMVI; > 100 µM (inactive) with MDA-N; 33.5 µM (inactive) in the assay on MOLT-4; > 100 µM (inactive) with SF-268; > 100 µM (inactive) in the assay with SF-295. In addition, the GI50 in the assay on SK-MEL-2 is > 100 µM (inactive); in the assay on SK-OV-3, > 100 µM (inactive); in the assay with SNB-19 it was 40.6 µM (inactive); in the assay on SR it was 35.6 µM (inactive); in the assay on T47D, > 100 µM (inactive).

Turning to `C=CC[C@H](C)CCC(=O)N1[C@H]2CC3CC[C@@]2(CS1(=O)=O)C3(C)C`, the GI50 was 50.6 µM (inactive) in the assay with 786-0; 18.7 µM (inactive) with CCRF-CEM; > 100 µM (inactive) with DU-145; 51.1 µM (inactive) in the assay with EKVX; 49.2 µM (inactive) in the assay on HCC 2998; > 100 µM (inactive) in the assay with HOP-62. In addition, the GI50 in the assay with KM12 was 39.3 µM (inactive); with LOX IMVI, 30.8 µM (inactive); in the assay with MDA-N, 79.8 µM (inactive); with MOLT-4, 17.3 µM (inactive); in the assay with SF-268, 41.7 µM (inactive); with SF-295, 45.2 µM (inactive). In addition, the GI50 in the assay with SK-MEL-2 was 50.2 µM (inactive); in the assay with SK-OV-3 it was > 100 µM (inactive); in the assay with SNB-19 it was 87.9 µM (inactive); in the assay on SR, 31.5 µM (inactive); in the assay with T47D, 42.6 µM (inactive).
